Laboratory results from US20250109370A1, “METHOD FOR PRODUCING CELL SUPPORT COMPOSITE, METHOD FOR PRODUCING DRUG EVALUATION APPARATUS, DRUG EVALUATION METHOD, AND DRUG EVALUATION APPARATUS” (NIKKISO CO., LTD., priority 2022, published 2025).

Experiments:
OCT2 = biological target: T1, OCT2 (Homo sapiens, UniProt O15244); assay: Membrane transportation evaluation using Transwell: cellular intake of radiolabeled Metformin by monolayer of re-seeded aggregate-cultured cells (Test 7); format: in vitro ADME
T1 sequence (O15244 1-555): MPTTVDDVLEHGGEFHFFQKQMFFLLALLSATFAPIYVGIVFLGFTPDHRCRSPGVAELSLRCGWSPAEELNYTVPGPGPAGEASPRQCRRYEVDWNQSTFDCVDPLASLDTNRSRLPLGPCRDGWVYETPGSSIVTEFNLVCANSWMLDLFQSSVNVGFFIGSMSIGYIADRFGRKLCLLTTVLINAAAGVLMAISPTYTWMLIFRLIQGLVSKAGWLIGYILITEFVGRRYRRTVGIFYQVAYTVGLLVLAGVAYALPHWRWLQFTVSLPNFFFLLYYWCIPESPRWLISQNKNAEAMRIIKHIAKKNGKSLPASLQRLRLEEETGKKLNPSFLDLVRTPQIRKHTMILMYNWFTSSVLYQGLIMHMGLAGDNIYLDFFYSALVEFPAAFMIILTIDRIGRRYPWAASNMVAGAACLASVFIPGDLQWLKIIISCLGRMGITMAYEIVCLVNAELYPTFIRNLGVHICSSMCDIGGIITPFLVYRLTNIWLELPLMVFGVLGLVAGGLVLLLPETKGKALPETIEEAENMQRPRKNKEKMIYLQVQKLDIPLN
Procedure: (§1) First, aggregates were formed, and a cell suspension was prepared from the aggregates to thereby re-seed the cells on the insert in the same manner as in Test 2. The seeding density was set to 4×10^4/well (12×10^4 cells/cm^2). Then, on the day after re-seeding (within 18 to 24 hours of re-seeding), membrane transport evaluation was performed using Transwell. In the membrane transport evaluation, radiolabeled Adefovir and radiolabeled Metformin were used. Adefovir is a drug as a substrate for OAT1, that is, a drug that is transported by OAT1. Metformin is a drug as a substrate for OCT2, that is, a drug that is transported by OCT2.
(§2) An assay buffer with each substrate added to a HBSS buffer was added to insert of the Transwell and treated for a predetermined time. For the Adefovir test, the treatment time was 2 minutes. For the Metformin test, the treatment time was 10 minutes. The cells were then retrieved, a cell suspension was prepared, and the radioisotopes in the cell suspension were quantified. As a result, the amount of substrate intake into the cell from the cellular apical membrane side was evaluated. The amount of substrate intake was also evaluated in the same manner when an inhibitor of OAT1, Probenecid, was added to the assay buffer and when an inhibitor of OCT2, Cimetidine, was added to the assay buffer.
(§3) The assay buffer was also added to the well of the Transwell and treated for a predetermined time. For the Adefovir test, the treatment time was 2 minutes. For the Metformin test, the treatment time was 10 minutes. The cells were then retrieved, a cell suspension was prepared, and the radioisotopes in the cell suspensions were quantified. As a result, the amount of substrate intake into the cell from the cellular basement membrane side was evaluated. The amount of substrate intake was also evaluated in the same manner when an inhibitor Probenecid was added to the assay buffer and when an inhibitor Cimetidine was added to the assay buffer.
(§4) In FIG. 15A and FIG. 15B, “A to C” indicates the amount of substrate intake into the cell from the cellular apical membrane side. […]

OAT1 = biological target: T2, OAT1 (Homo sapiens, UniProt Q4U2R8); assay: Membrane transportation evaluation using Transwell: cellular intake of radiolabeled Adefovir by monolayer of re-seeded aggregate-cultured cells (Test 7); format: in vitro ADME
T2 construct: Adefovir is a drug as a substrate for OAT1, that is, a drug that is transported by OAT1; host or cells: human renal proximal tubule epithelial cells, aggregate-cultured and re-seeded as a monolayer on a Transwell insert
T2 sequence (Q4U2R8 1-563): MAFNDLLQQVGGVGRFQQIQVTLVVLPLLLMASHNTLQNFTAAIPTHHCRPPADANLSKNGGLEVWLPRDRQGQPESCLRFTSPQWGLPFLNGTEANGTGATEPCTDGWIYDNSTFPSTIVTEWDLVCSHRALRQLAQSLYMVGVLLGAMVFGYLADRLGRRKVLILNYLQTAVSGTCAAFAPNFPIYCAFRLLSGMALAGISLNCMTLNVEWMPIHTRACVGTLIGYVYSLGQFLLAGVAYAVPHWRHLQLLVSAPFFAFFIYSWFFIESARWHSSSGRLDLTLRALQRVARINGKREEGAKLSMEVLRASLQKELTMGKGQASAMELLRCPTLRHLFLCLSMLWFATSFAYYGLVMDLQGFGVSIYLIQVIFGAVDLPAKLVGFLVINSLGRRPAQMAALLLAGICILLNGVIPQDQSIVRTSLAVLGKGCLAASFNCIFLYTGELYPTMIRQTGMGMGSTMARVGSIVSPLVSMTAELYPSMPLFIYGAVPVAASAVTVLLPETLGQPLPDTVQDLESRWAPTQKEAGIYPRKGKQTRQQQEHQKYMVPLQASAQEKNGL
Procedure: as §1, §2, §3, §4

Structure (SMILES) | transporter responsible for intake (OCT2; concluded from decrease with inhibitor Cimetidine) | substrate intake into the cells (OCT2; radiolabeled Metformin in HBSS buffer, 10 minutes, human renal proximal tubule epithelial cells 18 to 24 hours after re-seeding, FIG. 15B) | amount of cellular intake, basement membrane side (B to C) versus apical membrane side (A to C) (OCT2; radiolabeled Metformin, 10 minutes, FIG. 15B) | transporter responsible for intake (OAT1; concluded from decrease with inhibitor Probenecid) | substrate intake into the cells (OAT1; radiolabeled Adefovir in HBSS buffer, 2 minutes, human renal proximal tubule epithelial cells 18 to 24 hours after re-seeding, FIG. 15A) | amount of cellular intake, basement membrane side (B to C) versus apical membrane side (A to C) (OAT1; radiolabeled Adefovir, 2 minutes, FIG. 15A)
CN(C)C(=N)N=C(N)N [Metformin] | due to OCT2 | taken into the cells | higher from the cellular basement membrane side than from the cellular apical membrane side | – | – | –
Nc1ncnc2c1ncn2CCOCP(=O)(O)O [Adefovir] | – | – | – | due to OAT1 | taken into the cells | higher from the cellular basement membrane side than from the cellular apical membrane side
